Counter-ions that a name gives are not always drawn.
Legend:
ALDH1A1 enzyme = target: T1, ALDH1A1 enzyme (Homo sapiens, UniProt P00352); test: ALDH1A1 enzymatic assay (in vitro); type: biochemical; conditions: ALDH1A1 enzyme 20 nM, NAD+ 1 mM, propionaldehyde 80 μM; read-out: ALDH1A1 IC50
T1 sequence (P00352 1-501): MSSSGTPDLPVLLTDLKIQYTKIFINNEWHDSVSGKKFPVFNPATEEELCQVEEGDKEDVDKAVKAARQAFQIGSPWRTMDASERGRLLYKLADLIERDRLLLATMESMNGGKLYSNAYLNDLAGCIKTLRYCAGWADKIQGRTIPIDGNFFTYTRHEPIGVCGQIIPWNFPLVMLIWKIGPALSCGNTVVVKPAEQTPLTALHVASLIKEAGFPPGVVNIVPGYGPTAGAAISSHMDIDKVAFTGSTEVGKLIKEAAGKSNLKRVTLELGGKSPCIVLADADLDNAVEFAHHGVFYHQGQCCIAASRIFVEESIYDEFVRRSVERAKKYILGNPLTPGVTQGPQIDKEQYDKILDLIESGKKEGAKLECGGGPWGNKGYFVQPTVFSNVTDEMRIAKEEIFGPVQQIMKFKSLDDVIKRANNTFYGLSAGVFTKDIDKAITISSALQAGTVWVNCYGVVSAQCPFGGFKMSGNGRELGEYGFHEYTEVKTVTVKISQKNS
Outline: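 ALDH1A1 (20 nM final) in 100 mM HEPES pH 7.5, 0.01% Tween 20 was preincubated 15 min at RT with compound (968 pM–57.2 μM final), then started with 1 mM NAD+ and 80 μM propionaldehyde. NADH fluorescence (ex 340/em 450 nm) followed kinetically for 10 min; change normalized to no-inhibitor and no-enzyme controls for percent inhibition and curve fitting.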

MIA PaCa-2 cells = test: MIA PaCa2 cell-based assay (1,536-well high-content imaging ALDEFLUOR assay); design: species or system human; conditions: Homo sapiens, 0.5 h, ALDEFLUOR BAAA substrate 500 nM, 30 minutes
Outline: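 High-content ALDEFLUOR imaging readout: BAA-retaining cells in FITC channel scored against Hoechst-counted nuclei. Before imaging, MIA PaCa-2 cells seeded at 1,000 per well received final 500 nM BAAA and 0.5 nM Hoechst with compounds in 16-point series (1.4 nM to 47.8 μM), 30 min, 37° C.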

Row | Structure (SMILES) | IC50 (ALDH1A1 enzyme) [nM] | IC50 (MIA PaCa-2 cells) [µM]
1 | N#CC1(c2ccc(-c3c(C(=O)N4CCC(O)(C5CC5)CC4)cnc4ccc(F)cc34)cc2)CC1 [Cpd. 353, 1-(4-(3-(4-cyclopropyl-4-hydroxypiperidine-1-carbonyl)-6-fluoroquinolin-4-yl)phenyl)cyclopropane-1-carbonitrile] | < 500 | 1 to 10
2 | COc1ccc2ncc(C(=O)N3CCN(C(=O)C4CC4)CC3)c(N3CCC4(CCCO4)CC3)c2c1 [Example 24, (4-(cyclopropanecarbonyl)piperazin-1-yl)(6-methoxy-4-(1-oxa-8-azaspiro[4.5]decan-8-yl)quinolin-3-yl)methanone] | < 500 | > 10
3 | COc1ccc2ncc(C(=O)N3C[C@@H](C)O[C@@H](C)C3)c(N3CCC4(CC3)OCCO4)c2c1 [Example 33, ((2S*,6R*)-2,6-dimethylmorpholino)(6-methoxy-4-(1,4-dioxa-8-azaspiro[4.5]decan-8-yl)quinolin-3-yl)methanone] | 1000 to 10000 | > 10
4 | COc1cc2ncc(C(=O)N3CCN(C(=O)C4CC4)CC3)c(N3CCC(C)(C#N)CC3)c2cc1OC [Example 109, 1-(3-(4-(cyclopropanecarbonyl)piperazine-1-carbonyl)-6,7-dimethoxyquinolin-4-yl)-4-methylpiperidine-4-carbonitrile] | < 500 | 1 to 10
5 | CC1(C#N)CCN(c2c(C(=O)N3CCN(S(C)(=O)=O)CC3)cnc3c(F)c(F)c(F)cc23)CC1 [Example 138, 4-methyl-1-(6,7,8-trifluoro-3-(4-(methylsulfonyl)piperazine-1-carbonyl)quinolin-4-yl)piperidine-4-carbonitrile] | < 500 | 1 to 10
6 | CN(C)S(=O)(=O)N1CCN(C(=O)c2cnc3ccc(Cl)cc3c2-c2ccc(C3(C#N)CC3)cc2)CC1 [Example 298, 4-(6-chloro-4-(4-(1-cyanocyclopropyl)phenyl)quinoline-3-carbonyl)-N,N-dimethylpiperazine-1-sulfonamide] | < 500 | < 0.5
7 | CC1(C#N)CCN(c2c(C(=O)N3CCN(C(=O)N4CCCC4)CC3)cnc3ccc(F)cc23)CC1 [Example 155, 1-(6-fluoro-3-(4-(pyrrolidine-1-carbonyl)piperazine-1-carbonyl)quinolin-4-yl)-4-methylpiperidine-4-carbonitrile] | 1000 to 10000 | > 10
8 | O=C(c1cnc2ccc(F)cc2c1N1CCC2(CC1)Cc1ccccc1C2=O)N1CCN(C(=O)C2CC2)CC1 [Example 204, 1′-(3-(4-(cyclopropanecarbonyl)piperazine-1-carbonyl)-6-fluoroquinolin-4-yl)spiro[indene-2,4′-piperidin]-1(3H)-one] | 1000 to 10000 | > 10
9 | O=C(c1cnc2ccc(F)cc2c1N1CCC2(CC1)OCCO2)N1CCS(=O)(=O)CC1 [Example 53, (1,1-dioxidothiomorpholino)(6-fluoro-4-(1,4-dioxa-8-azaspiro[4.5]decan-8-yl)quinolin-3-yl)methanone] | 500 to 1000 | > 10
10 | CCS(=O)(=O)N1CCN(C(=O)c2cnc3cc(F)c(F)cc3c2N2CCC(C)(C#N)CC2)CC1 [Example 176, 1-(3-(4-(ethylsulfonyl)piperazine-1-carbonyl)-6,7-difluoroquinolin-4-yl)-4-methylpiperidine-4-carbonitrile] | < 500 | 1 to 10
11 | COc1ccc2ncc(C(=O)N3CCC(c4ccccc4)CC3)c(N3CCC4(CC3)OCCO4)c2c1 [Example 10, (6-methoxy-4-(1,4-dioxa-8-azaspiro[4.5]decan-8-yl)quinolin-3-yl)(4-phenylpiperidin-1-yl)methanone, TFA] | < 500 | > 10
12 | O=C(c1cnc2ccc(F)cc2c1N1CCC2(CC1)OCCO2)N1CCCN(C(=O)C2CC2)CC1 [Example 69, (4-(cyclopropanecarbonyl)-1,4-diazepan-1-yl)(6-fluoro-4-(1,4-dioxa-8-azaspiro[4.5]decan-8-yl)quinolin-3-yl)methanone] | < 500 | > 10
13 | CC1(C#N)CCN(c2c(C(=O)N3CCN(C(=O)C4CC4)CC3)cnc3cc(F)c(F)cc23)CC1 [Example 126, 1-(3-(4-(cyclopropanecarbonyl)piperazine-1-carbonyl)-6,7-difluoroquinolin-4-yl)-4-methylpiperidine-4-carbonitrile] | < 500 | 1 to 10
14 | CC1(C#N)CCN(c2c(C(=O)N3CCN(S(C)(=O)=O)CC3)cnc3ccc(Cl)cc23)CC1 [Example 119, 1-(6-chloro-3-(4-(methylsulfonyl)piperazine-1-carbonyl)quinolin-4-yl)-4-methylpiperidine-4-carbonitrile] | < 500 | 1 to 10
15 | CN(C)C(=O)N1CCN(C(=O)c2cnc3c(F)cc(F)cc3c2N2CCC(C)(C#N)CC2)CC1 [Example 183, 4-(4-(4-cyano-4-methylpiperidin-1-yl)-6,8-difluoroquinoline-3-carbonyl)-N,N-dimethylpiperazine-1-carboxamide] | < 500 | 1 to 10
16 | N#CC1(c2ccc(Cl)cc2)CCN(c2c(C(=O)N3CCN(C(=O)C4CC4)CC3)cnc3ccc(F)cc23)CC1 [Example 267, 4-(4-chlorophenyl)-1-(3-(4-(cyclopropanecarbonyl)piperazine-1-carbonyl)-6-fluoroquinolin-4-yl)piperidine-4-carbonitrile] | < 500 | 1 to 10
17 | N#CC1(c2ccccc2)CCN(c2c(C(=O)Nc3cnn(CC(=O)NC4CC4)c3)cnc3ccc(F)cc23)CC1 [Cpd. 347, 4-(4-cyano-4-phenylpiperidin-1-yl)-N-(1-(2-(cyclopropylamino)-2-oxoethyl)-1H-pyrazol-4-yl)-6-fluoroquinoline-3-carboxamide] | < 500 | < 0.5
18 | N#CC1(c2ccc(-c3c(C(=O)N4CC5(C4)CS(=O)(=O)C5)cnc4ccc(F)cc34)cc2)CC1 [Cpd. 332, 1-(4-(3-(2,2-dioxido-2-thia-6-azaspiro[3.3]heptane-6-carbonyl)-6-fluoroquinolin-4-yl)phenyl)cyclopropane-1-carbonitrile] | < 500 | 1 to 10
19 | CS(=O)(=O)N1CCN(C(=O)c2cnc3cc(F)c(F)cc3c2N2CCC3(CC2)OCCO3)CC1 [Example 132, (6,7-difluoro-4-(1,4-dioxa-8-azaspiro[4.5]decan-8-yl)quinolin-3-yl)(4-(methylsulfonyl)piperazin-1-yl)methanone] | < 500 | 1 to 10
20 | CC1(C#N)CCN(c2c(C(=O)N3CCN(C(=O)N4CCCC4)CC3)cnc3c(F)cc(F)cc23)CC1 [Example 165, 1-(6,8-difluoro-3-(4-(pyrrolidine-1-carbonyl)piperazine-1-carbonyl)quinolin-4-yl)-4-methylpiperidine-4-carbonitrile] | 1000 to 10000 | 1 to 10
21 | CCN(CC)C(=O)N1CCN(C(=O)c2cnc3cc(F)c(F)cc3c2N2CCC(C)(C#N)CC2)CC1 [Example 174, 4-(4-(4-cyano-4-methylpiperidin-1-yl)-6,7-difluoroquinoline-3-carbonyl)-N,N-diethylpiperazine-1-carboxamide] | 500 to 1000 | 1 to 10
22 | CC1(C#N)CCN(c2c(C(=O)N3CCN(C(=O)C4CC4)C(C)(C)C3)cnc3ccc(F)cc23)CC1 [Example 231, 1-(3-(4-(cyclopropanecarbonyl)-3,3-dimethylpiperazine-1-carbonyl)-6-fluoroquinolin-4-yl)-4-methylpiperidine-4-carbonitrile] | > 10000 | > 10
